The results in this text go back to patent US20260151347A1, “CELL-DERIVED MICROPARTICLE DELIVERY SYSTEM AND USES THEREOF” (priority 2021, published 2026).

This assay concerns 4T1-luc2 cells. Put plainly: In vitro validation of released drug efficacy. The assay is classed as cell-based. The following applies: after 4 hours, free drug dose equals cumulative cisplatin release at 4 hours. The source says: Additional controls include unloaded MPs and untreated cells. […] As shown in these experiments, the local release of high levels of payload may result in a stark increase in efficiency for the treatment of diseased cells.

The structures appear in SMILES notation.

For the compound `N.N.[Cl][Pt][Cl]` [Cisplatin], the “cell death as compared to control” value was “little to no cell death”.
